Assay results from patent publication US20260285850A1, “SUBSTITUTED OXAZOLIDINONES AND IMIDAZOLINONES AS HERBICIDES” (FMC CORPORATION, priority 2023, published 2026).

Key:
Assay type in all cases: in vivo
[1] = test system: barnyardgrass (Echinochloa crus-galli); test: Test A preemergence soil spray, visual injury rating 0-100; settings: 10 days
How it was run: (§1)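 Directed preemergence spray onto seeded soil or postemergence spray onto 2-10 cm plants (loam plus sand); compound carried in surfactant-containing non-phytotoxic solvent. Injury rated by eye after 10 d greenhouse growth; 0 = no effect, 100 = complete control.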

[2] = test system: blackgrass (Alopecurus myosuroides); test: as above; settings: 10 days
How it was run: as §1

corn (Zea mays) [3] = test: as above; settings: 10 days
How it was run: as §1

[4] = test system: green foxtail (Setaria viridis); test: as above; settings: 10 days
How it was run: as §1

kochia (Bassia scoparia) [5] = test: as above; settings: 10 days
How it was run: as §1

[6] = test system: oat, wild (wild oat, Avena fatua); test: as above; settings: 10 days
How it was run: as §1

[7] = test system: palmer (palmer amaranth, palmer pigweed, Amaranthus palmeri); test: as above; settings: 10 days
How it was run: as §1

[8] = test system: ragweed (common ragweed, Ambrosia artemisiifolia); test: as above; settings: 10 days
How it was run: as §1

[9] = test system: ryegrass, Italian (italian ryegrass, Lolium multiflorum); test: as above; settings: 10 days
How it was run: as §1

soybean (Glycine max) [10] = test: as above; settings: 10 days
How it was run: as §1

[11] = test system: wheat (Triticum aestivum); test: as above; settings: 10 days
How it was run: as §1

[12] = test system: barnyardgrass (Echinochloa crus-galli); test: Test A postemergence application, visual injury rating 0-100; settings: for Barnyardgrass plant response rating (0-100): postemergence, 0 = no effect, 100 = complete control; for Barnyardgrass plant response rating (0 to 100 scale): Postemergence
How it was run: as §1

[13] = test system: blackgrass (Alopecurus myosuroides); test: as above; settings: for Blackgrass plant response rating (0-100): postemergence, 0 = no effect, 100 = complete control; for Blackgrass plant response rating (0 to 100 scale): Postemergence
How it was run: as §1

corn (Zea mays) [14] = test: as above; settings: for Corn plant response rating (0-100): postemergence, 0 = no effect, 100 = complete control; for Corn plant response rating (0 to 100 scale): Postemergence
How it was run: as §1

[15] = test system: green foxtail (Setaria viridis); test: as above; settings: for Foxtail, Green plant response rating (0-100): postemergence, 0 = no effect, 100 = complete control; for Foxtail, Green plant response rating (0 to 100 scale): Postemergence
How it was run: as §1

[16] = test system: horseweed (Erigeron canadensis); test: as above; settings: for Horseweed plant response rating (0-100): postemergence, 0 = no effect, 100 = complete control; for Horseweed plant response rating (0 to 100 scale): Postemergence
How it was run: as §1

kochia (Bassia scoparia) [17] = test: as above; settings: for Kochia plant response rating (0-100): postemergence, 0 = no effect, 100 = complete control; for Kochia plant response rating (0 to 100 scale): Postemergence
How it was run: as §1

[18] = test system: oat, wild (wild oat, Avena fatua); test: as above; settings: for Oat, Wild plant response rating (0-100): postemergence, 0 = no effect, 100 = complete control; for Oat, Wild plant response rating (0 to 100 scale): Postemergence
How it was run: as §1

[19] = test system: palmer (palmer amaranth, palmer pigweed, Amaranthus palmeri); test: as above
How it was run: as §1

[20] = test system: ragweed (common ragweed, Ambrosia artemisiifolia); test: as above; settings: for Ragweed plant response rating (0-100): postemergence, 0 = no effect, 100 = complete control; for Ragweed plant response rating (0 to 100 scale): Postemergence
How it was run: as §1

[21] = test system: ryegrass, Italian (italian ryegrass, Lolium multiflorum); test: as above; settings: for Ryegrass, Italian plant response rating (0-100): postemergence, 0 = no effect, 100 = complete control; for Ryegrass, Italian plant response rating (0 to 100 scale): Postemergence
How it was run: as §1

soybean (Glycine max) [22] = test: as above; settings: for Soybean plant response rating (0-100): postemergence, 0 = no effect, 100 = complete control; for Soybean plant response rating (0 to 100 scale): Postemergence
How it was run: as §1

[23] = test system: wheat (Triticum aestivum); test: as above; settings: for Wheat plant response rating (0-100): postemergence, 0 = no effect, 100 = complete control; for Wheat plant response rating (0 to 100 scale): Postemergence
How it was run: as §1

[24] = test system: barnyardgrass (Echinochloa crusgalli); test: Test B flooded paddy test, visual plant response rating 0-100; settings: 250 g ai/ha, Flood, applied to paddy water, evaluated after 13 days
How it was run: (§2)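 Treatment occurs at the 2-leaf stage by adding compound to floodwater standing 3 cm above the soil, a level kept for the whole test. Plants stay in the greenhouse 13 days before visual comparison with controls.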

[25] = test system: ducksalad (Heteranthera limosa); test: as above; settings: 250 g ai/ha, Flood, applied to paddy water, evaluated after 13 days
How it was run: as §2

rice (Oryza sativa) = test: as above; settings: 250 g ai/ha, Flood, applied to paddy water, evaluated after 13 days
How it was run: as §2

[26] = test system: sedge, umbrella (small-flower umbrella sedge, Cyperus difformis); test: as above; settings: 250 g ai/ha, Flood, applied to paddy water, evaluated after 13 days
How it was run: as §2

[27] = 62 g ai/ha, 0 = no effect, 100 = complete control
[28] = 16 g ai/ha, greenhouse 10 days, 0 no effect, 100 complete control
[29] = 31 g ai/ha, 0 = no effect, 100 = complete control
[30] = 125 g ai/ha, 0 = no effect, 100 = complete control
[31] = 125 g ai/ha, 10 days, 0 is no effect, 100 is complete control

CC1(C(=O)NC2CC=C(C(=O)O)C2)CN(c2cc(F)cc(Cl)c2)C(=O)O1 (stereo not shown) [Compound 159]
80: Barnyardgrass plant response rating (0-100) [1, 27] | Blackgrass plant response rating (0 to 100 scale) [13, 28] | Horseweed plant response rating (0-100) ([16]; 62 g ai/ha, 10 days) | Kochia plant response rating (0-100) (kochia (Bassia scoparia) [17]; 62 g ai/ha, 10 days) | Pigweed, Palmer plant response rating (0 to 100 scale) ([19]; Postemergence, 16 g ai/ha, greenhouse 10 days, 0 no effect, 100 complete control) | Soybean plant response rating (0-100) (soybean (Glycine max) [22]; 62 g ai/ha, 10 days) | Soybean plant response rating (0 to 100 scale) (soybean (Glycine max) [22]; [28])
55: Plant response rating, Rice (0 to 100 scale, 0 is no effect and 100 is complete control) (rice (Oryza sativa))
60: Ryegrass, Italian plant response rating (0 to 100 scale) [21, 28]
50: Corn plant response rating (0-100) (corn (Zea mays) [3]; [27]) | Soybean plant response rating (0-100) (soybean (Glycine max) [10]; [27]) | Wheat plant response rating ([11]; 16 g ai/ha, 0 to 100 scale) | Horseweed plant response rating (0 to 100 scale) [16, 28]
70: Foxtail, Green plant response rating (0 to 100 scale) [15, 28] | Kochia plant response rating (0 to 100 scale) (kochia (Bassia scoparia) [17]; [28]) | Ragweed plant response rating (0-100) ([20]; 62 g ai/ha, 10 days)
0: Barnyardgrass plant response rating ([1]; 16 g ai/ha, 0 to 100 scale) | Blackgrass plant response rating ([2]; 16 g ai/ha, 0 to 100 scale) | Blackgrass plant response rating (0-100) [2, 27] | Kochia plant response rating (kochia (Bassia scoparia) [5]; 16 g ai/ha, 0 to 100 scale) | Oat, Wild plant response rating ([6]; 16 g ai/ha, 0 to 100 scale) | Ragweed plant response rating ([8]; 16 g ai/ha, 0 to 100 scale) | Ragweed plant response rating (0-100) [8, 27] | Soybean plant response rating (soybean (Glycine max) [10]; 16 g ai/ha, 0 to 100 scale)
90: Kochia plant response rating (0-100) (kochia (Bassia scoparia) [5]; [27]) | Ryegrass, Italian plant response rating (0-100) [9, 27] | Wheat plant response rating (0-100) [11, 27] | Blackgrass plant response rating (0-100) ([13]; 62 g ai/ha, 10 days) | Foxtail, Green plant response rating (0-100) ([15]; 62 g ai/ha, 10 days) | Pigweed, Palmer plant response rating (0-100) ([19]; 62 g ai/ha, postemergence, 10 days, 0 = no effect, 100 = complete control) | Wheat plant response rating (0-100) ([23]; 62 g ai/ha, 10 days)
100: Foxtail, Green plant response rating (0-100) [4, 27] | Pigweed, Palmer plant response rating (0-100) [7, 27] | Barnyardgrass plant response rating (0-100) ([12]; 62 g ai/ha, 10 days) | Barnyardgrass plant response rating (0 to 100 scale) [12, 28] | Corn plant response rating (0-100) (corn (Zea mays) [14]; 62 g ai/ha, 10 days) | Corn plant response rating (0 to 100 scale) (corn (Zea mays) [14]; [28]) | Ryegrass, Italian plant response rating (0-100) ([21]; 62 g ai/ha, 10 days) | Plant response rating, Ducksalad (0 to 100 scale, 0 is no effect and 100 is complete control) [25] | Plant response rating, Sedge, Umbrella (0 to 100 scale, 0 is no effect and 100 is complete control) [26]
30: Pigweed, Palmer plant response rating ([7]; 16 g ai/ha, 0 to 100 scale) | Ryegrass, Italian plant response rating ([9]; 16 g ai/ha, 0 to 100 scale) | Oat, Wild plant response rating (0-100) ([18]; 62 g ai/ha, 10 days) | Oat, Wild plant response rating (0 to 100 scale) [18, 28] | Wheat plant response rating (0 to 100 scale) [23, 28]
20: Corn plant response rating (corn (Zea mays) [3]; 16 g ai/ha, 0 to 100 scale) | Foxtail, Green plant response rating ([4]; 16 g ai/ha, 0 to 100 scale) | Oat, Wild plant response rating (0-100) [6, 27]
40: Ragweed plant response rating (0 to 100 scale) [20, 28]
95: Plant response rating, Barnyardgrass (0 to 100 scale, 0 is no effect and 100 is complete control) [24]

COC(=O)C1CCC(NC(=O)C2(C)CN(c3cc(F)cc(F)c3)C(=O)O2)C1 (stereo not shown) [Compounds 10]
80: Oat, Wild plant response rating (0 to 100 scale) [6, 30] | Amaranth, Palmer / Pigweed, Palmer plant response rating (0 to 100 scale) ([19]; Postemergence, 125 g ai/ha, 10 days, 0 is no effect, 100 is complete control) | Ryegrass, Italian plant response rating (0 to 100 scale) [21, 31] | Wheat plant response rating (0-100) ([23]; 31 g ai/ha, 10 days)
30: Blackgrass plant response rating (0-100) [2, 29] | Horseweed plant response rating (0-100) ([16]; 31 g ai/ha, 10 days)
50: Oat, Wild plant response rating (0-100) [6, 29] | Soybean plant response rating (0 to 100 scale) (soybean (Glycine max) [10]; [30]) | Blackgrass plant response rating (0-100) ([13]; 31 g ai/ha, 10 days) | Soybean plant response rating (0-100) (soybean (Glycine max) [22]; 31 g ai/ha, 10 days) | Plant response rating, Barnyardgrass (0 to 100 scale, 0 is no effect and 100 is complete control) [24]
100: Barnyardgrass plant response rating (0 to 100 scale) [12, 31] | Corn plant response rating (0 to 100 scale) (corn (Zea mays) [14]; [31]) | Plant response rating, Ducksalad (0 to 100 scale, 0 is no effect and 100 is complete control) [25] | Plant response rating, Sedge, Umbrella (0 to 100 scale, 0 is no effect and 100 is complete control) [26]
60: Barnyardgrass plant response rating (0-100) ([12]; 31 g ai/ha, 10 days) | Ryegrass, Italian plant response rating (0-100) ([21]; 31 g ai/ha, 10 days)
40: Amaranth, Palmer plant response rating (0 to 100 scale) [7, 30] | Corn plant response rating (0-100) (corn (Zea mays) [14]; 31 g ai/ha, 10 days) | Horseweed plant response rating (0 to 100 scale) [16, 31]
90: Barnyardgrass plant response rating (0 to 100 scale) [1, 30] | Blackgrass plant response rating (0 to 100 scale) [2, 30] | Foxtail, Green plant response rating (0 to 100 scale) [4, 30] | Kochia plant response rating (0 to 100 scale) (kochia (Bassia scoparia) [5]; [30]) | Ryegrass, Italian plant response rating (0 to 100 scale) [9, 30] | Wheat plant response rating (0-100) [11, 29] | Wheat plant response rating (0 to 100 scale) [11, 30] | Blackgrass plant response rating (0 to 100 scale) [13, 31] | Foxtail, Green plant response rating (0 to 100 scale) [15, 31] | Oat, Wild plant response rating (0-100) ([18]; 31 g ai/ha, 10 days) | Oat, Wild plant response rating (0 to 100 scale) [18, 31] | Wheat plant response rating (0 to 100 scale) [23, 31]
10: Barnyardgrass plant response rating (0-100) [1, 29] | Ryegrass, Italian plant response rating (0-100) [9, 29] | Soybean plant response rating (0-100) (soybean (Glycine max) [10]; [29]) | Amaranth, Palmer plant response rating (0-100) ([19]; 31 g ai/ha, postemergence, 10 days, 0 = no effect, 100 = complete control) | Plant response rating, Rice (0 to 100 scale, 0 is no effect and 100 is complete control) (rice (Oryza sativa))
0: Corn plant response rating (0-100) (corn (Zea mays) [3]; [29]) | Foxtail, Green plant response rating (0-100) [4, 29] | Amaranth, Palmer plant response rating (0-100) [7, 29] | Ragweed plant response rating (0-100) [8, 29] | Ragweed plant response rating (0 to 100 scale) [8, 30] | Ragweed plant response rating (0-100) ([20]; 31 g ai/ha, 10 days) | Ragweed plant response rating (0 to 100 scale) [20, 31]
20: Kochia plant response rating (0-100) (kochia (Bassia scoparia) [5]; [29]) | Foxtail, Green plant response rating (0-100) ([15]; 31 g ai/ha, 10 days) | Kochia plant response rating (0-100) (kochia (Bassia scoparia) [17]; 31 g ai/ha, 10 days)
70: Corn plant response rating (0 to 100 scale) (corn (Zea mays) [3]; [30]) | Kochia plant response rating (0 to 100 scale) (kochia (Bassia scoparia) [17]; [31]) | Soybean plant response rating (0 to 100 scale) (soybean (Glycine max) [22]; [31])
